One may read the logP as the decadic logarithm of the partition coefficient of the neutral form, usually between octanol and water. Read a high logP as higher lipophilicity. In general, EC50 refers to the concentration at which the effect is half-maximal. The term half-life denotes the time needed for the level to fall by half in the phase considered.

Structures are written as SMILES. Where only a bound is given, the exact number is not on record here.

The source of these data is ChEMBL document CHEMBL5046313, “Synthesis and Optimization of Nitroxide-Based Inhibitors of Ferroptotic Cell Death in Cancer Cells and Macrophages” (ACS Med Chem Lett, 2022).

A short description of data set [1]: Lipophilicity, log P of the compound. The data set is classed as physicochemical. The settings on record: octanol/water.
The test system of data set [2] is HT-1080. Kind of data set: Anti-ferroptotic activity against Erastin-induced ferroptosis in human HT-1080 cells assessed as cell activity measured after 24 hrs by Cell Titer-Glo luminescent assay. The data set is classed as functional, cell-based. To be noted: HT-1080, 24 h. (ATP-based viability assays read luminescence as a measure of living cells.)
The subject of data set [3] is RAW264.7. Kind of data set: Anti-ferroptotic activity against RSL-3 induced ferroptosis in mouse RAW264.7 cells assessed as cell activity measured after 24 hrs by Cell Titer-Glo luminescent assay. The format is functional, cell-based. The settings on record: RAW264.7, 24 h.
A short description of data set [4]: Metabolic stability in mouse liver S9 fraction assessed as half life measured upto 60 mins in presence of NADPH by LC-MS/MS analysis. The data set is classed as ADME, subcellular.
Data set [5] is described as follows: Metabolic stability in human liver S9 fraction assessed as half life measured upto 60 mins in presence of NADPH by LC-MS/MS analysis. The format is ADME, subcellular.

In data set [1], `CC1(C)CC(NC(=O)C(/C=C/[C@@H](NC(=O)OC(C)(C)C)c2ccc(F)cc2)(Cc2ccc(F)cn2)Cc2ccc(F)cn2)CC(C)(C)N1` displayed a logP of 5.8. Further, the EC50 in data set [2] was over 2000 nM.

In data set [1], `CC1(C)CC(NC(=O)C(C)(C)/C=C/[C@H](NC(=O)OC(C)(C)C)c2ccccc2)CC(C)(C)N1` gave a logP of 4.2. Moreover, the EC50 in data set [2] was found to be 330 nM.

For the molecule `CC(C)C[C@@H](/C=C/C(C)(C)C(=O)NC1CC(C)(C)NC(C)(C)C1)NC(=O)OC(C)(C)C`, the lipophilicity (logP) in data set [1] is 4. Also, the half-maximal effective concentration (EC50) in data set [3] is 1150 nM; in data set [2], 240 nM.

The molecule `CC(C)C[C@@H](/C=C/C1(C(=O)NC2CC(C)(C)NC(C)(C)C2)CCOCC1)NC(=O)OC(C)(C)C` gave a logP in data set [1] of 3.1. The EC50 in data set [2] turned out to be 2200 nM.

In the case of `CC1(C)CC(NC(=O)C/C=C/[C@H](NC(=O)OC(C)(C)C)c2ccccc2)CC(C)(C)N1`, the log partition coefficient (logP) in data set [1] came to 2.9. The values for the half-maximal effective concentration (EC50) in data set [3] and in data set [2] were 2760 nM and 1300 nM, respectively.

In data set [1], `CC1(C)CC(NC(=O)C(/C=C/[C@H](NC(=O)OC(C)(C)C)c2ccc(F)cc2)(Cc2ccc(F)cc2)Cc2ccc(F)cc2)CC(C)(C)N1` yielded a log partition coefficient (logP) of 7.9. Moreover, the half-life was 3 min in data set [4] and 7 min in data set [5]. For the same molecule, the results for the EC50 in data set [3] and in data set [2] were 250 nM and 340 nM, respectively.

In turn, `CCOC(=O)c1ccc(NC2CCCCC2)c(N)c1` came in with a logP in data set [1] of 2.8. Moreover, the figures for the EC50 in data set [3] and in data set [2] were 40 nM and 70 nM, respectively.

`CC(C)C[C@@H](/C=C/C1(C(=O)NC2CC(C)(C)NC(C)(C)C2)CCCC1)NC(=O)OC(C)(C)C` registered a logP in data set [1] of 4.4. Moreover, the EC50 in data set [2] was 560 nM.

In data set [1], `CC1(C)CC(NC(=O)C(/C=C/[C@@H](NC(=O)OC(C)(C)C)c2ccoc2)(Cc2ccc(F)cc2)Cc2ccc(F)cc2)CC(C)(C)N1` yielded a logP of 6. The EC50 in data set [2] was found to be 430 nM.

Molecule `CC(C)C[C@@H](/C=C/C(Cc1ccccc1)(Cc1ccccc1)C(=O)NC1CC(C)(C)NC(C)(C)C1)NC(=O)OC(C)(C)C` registered a logP in data set [1] of 7.2. In addition, the figures for the half-life in data set [4] and in data set [5] were 3 min and 7 min, respectively. Besides, the figures for the EC50 in data set [3] and in data set [2] were 370 nM and 130 nM, respectively.

Molecule `CC1(C)CC(NC(=O)C(/C=C/[C@@H](NC(=O)OC(C)(C)C)c2ccc(F)cc2)(Cc2ccc(F)cc2)Cc2ccc(F)cc2)CC(C)(C)N1` returned a logP in data set [1] of 7.9. In data set [2], the EC50 worked out at 280 nM.

In data set [1], `CC(C)C[C@H](/C=C/C(Cc1ccc(F)cc1)(Cc1ccc(F)cc1)C(=O)NC1CC(C)(C)NC(C)(C)C1)NC(=O)OC(C)(C)C` returned a lipophilicity (logP) of 7.6. Besides, in data set [2], the concentration for a half-maximal effect (EC50) was determined as 180 nM.

Molecule `CC(C)C[C@H](/C=C/C(C)(C)C(=O)NC1CC(C)(C)NC(C)(C)C1)NC(=O)OC(C)(C)C` returned a logP in data set [1] of 4. Besides, the results for the half-life in data set [4] and in data set [5] were 3 min and 7 min, respectively. Besides, the EC50 in data set [3] was determined as 1170 nM; in data set [2], 250 nM.

Turning to `CC(C)C[C@@H](/C=C/CC(=O)NC1CC(C)(C)NC(C)(C)C1)NC(=O)OC(C)(C)C`, the logP in data set [1] stood at 2.8. Moreover, the half-life in data set [4] stood at 9 min; in data set [5], 5 min. Further, the EC50 in data set [3] is 4090 nM; in data set [2], 3580 nM.

In data set [1], `CC(C)C[C@@H](/C=C/C(Cc1ccc(F)cc1)(Cc1ccc(F)cc1)C(=O)NC1CC(C)(C)NC(C)(C)C1)NC(=O)OC(C)(C)C` registered a logP of 7.6. Further, the EC50 in data set [3] turned out to be 600 nM; in data set [2], 330 nM.

In data set [1], `CC(C)C[C@@H](/C=C/C1(C(=O)NC2CC(C)(C)NC(C)(C)C2)CC1)NC(=O)OC(C)(C)C` returned a log partition coefficient (logP) of 3.5. Further, the results for the EC50 in data set [3] and in data set [2] were 1130 nM and 800 nM, respectively.

As for `CC1(C)CC(NC(=O)C(/C=C/[C@H](NC(=O)OC(C)(C)C)c2ccoc2)(Cc2ccc(F)cc2)Cc2ccc(F)cc2)CC(C)(C)N1`, the logP in data set [1] came to 6. In data set [2], the EC50 was 240 nM.
